This is an account of results in US9067894B1, “Compound, composition, and method of activating GIRK potassium channel and use of same for treating conditions of interest” (Vanderbilt University, priority 2013, dated 2015).

The structures appear in SMILES notation.

Series [1] is described as follows: Microsomal clearance, murine liver microsomes. The format is in vitro ADME, mouse. As to the method:
DMPK Methods. […] After a 5 min preincubation, the reaction was initiated by addition of NADPH (1 mM). At selected time intervals (0, 3, 7, 15, 25, and 45 min), 50 μL aliquots were taken and subsequently placed into a 96-well plate containing 150 μL of cold acetonitrile with internal standard (50 ng/mL carbamazepine). Plates were then centrifuged at 3000 rcf (4° C.) for 10 min, and the supernatant was transferred to a separate 96-well plate and diluted 1:1 with water for LC/MS/MS analysis. […] Liquid Chromatography/Mass Spectrometry Analysis. In vitro experiments. VU0456810 was analyzed on a Thermo Electron TSQ Quantum Ultra triple quad mass spectrometer (San Jose, Calif.) via electrospray ionization (ESI) with two Themo Electron Accella pumps (San Jose, Calif.), and a Leap Technologies CTC PAL autosampler (Carrboro, N.C.). Analytes were separated by gradient elution on a dual column system with two Thermo Hypersil Gold (2.1×30 mm, 1.9 μm) columns (San Jose, Calif.) at 40° C. […] The total run time was 1.3 min and the HPLC flow rate was 0.8 mL/min. […] Compound optimization, data collection and processing were performed using Thermo Electron's QuickQuan software (v2.3) and Xcalibur (v2.0.7 SP1).
On the technique in general: Microsomes from liver hold many membrane-bound enzymes, among them those of drug oxidation.

For series [2], the target named is T1, Andreogen (Rattus norvegicus, UniProt P15207).
T1 construct: Ricerca
T1 sequence (P15207 whole entry S389L): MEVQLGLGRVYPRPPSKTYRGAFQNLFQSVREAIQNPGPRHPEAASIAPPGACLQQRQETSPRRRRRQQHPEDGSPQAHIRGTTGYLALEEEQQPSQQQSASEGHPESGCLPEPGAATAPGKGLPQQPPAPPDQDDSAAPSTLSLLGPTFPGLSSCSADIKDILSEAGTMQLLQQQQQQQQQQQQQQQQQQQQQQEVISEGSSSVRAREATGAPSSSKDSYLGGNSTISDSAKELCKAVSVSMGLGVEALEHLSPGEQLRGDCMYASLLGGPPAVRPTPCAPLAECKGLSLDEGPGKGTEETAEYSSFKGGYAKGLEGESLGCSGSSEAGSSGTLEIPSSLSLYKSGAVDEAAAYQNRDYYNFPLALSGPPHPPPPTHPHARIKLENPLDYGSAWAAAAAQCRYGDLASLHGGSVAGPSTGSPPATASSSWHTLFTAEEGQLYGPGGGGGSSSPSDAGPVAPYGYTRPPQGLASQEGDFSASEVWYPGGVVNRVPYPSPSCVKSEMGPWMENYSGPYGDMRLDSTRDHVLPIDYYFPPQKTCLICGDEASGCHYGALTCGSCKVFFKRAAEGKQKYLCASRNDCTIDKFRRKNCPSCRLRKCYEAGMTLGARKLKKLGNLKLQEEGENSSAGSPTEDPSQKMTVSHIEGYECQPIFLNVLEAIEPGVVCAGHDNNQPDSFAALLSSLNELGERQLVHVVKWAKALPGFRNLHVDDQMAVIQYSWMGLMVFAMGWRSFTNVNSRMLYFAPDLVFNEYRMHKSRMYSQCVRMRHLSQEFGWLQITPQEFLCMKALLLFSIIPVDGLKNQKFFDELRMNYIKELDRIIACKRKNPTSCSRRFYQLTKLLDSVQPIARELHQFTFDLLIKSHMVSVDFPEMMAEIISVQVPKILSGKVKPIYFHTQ
In words: Radioligand displacement (Ricerca). The format is binding.

For orientation: inhibition means the drop in the measured response relative to a control, in per cent. A higher inhibition goes with a strong effect. With `Cc1cc(NC(=O)Nc2ccc(F)c(F)c2)n(-c2ccccc2)n1` [VU0456810, 1-(3,4-difluorophenyl)-3-(3-methyl-1-phenyl-1H-pyrazol-5-yl)urea], the rClHEP in series [1] is listed as 88 mL/min/kg. The CLhep predicted at 1 μM in series [1] (mouse, pH 7.4) was 88 mL/min/kg. 10 µM produced 0% inhibition in series [2].
